Earlier results as cited in patent publication EP2018866A1, “Pharmaceutical compositions containing voriconazole” (SANDOZ AG, priority 2007, dated 2009).
≈ marks a conversion by molar mass, not a printed value. Where two headings read alike, the source gives them in different places.

For `C[C@@H](c1ncncc1F)[C@](O)(Cn1cncn1)c1ccc(F)cc1F` [Voriconazole, (2R,3S)-2-(2,4-Difluorophenyl)-3-(5-fluoro-4-pyrimidinyl)-1-(1H-1,2,4-triazol-1-yl)-butan-2-ol], the aqueous solubility (at a pH 3) is given as 200 µg/mL (≈ 573 µM) and the aqueous solubility (at a pH 7) is given as 610 µg/mL (≈ 1750 µM).
